The values that follow are results of earlier work, collected in patent publication US11491138B2, “Injectable psychoactive alkaloid composition and preparation thereof” (PSILO SCIENTIFIC LTD, priority 2020, dated 2022).

The structures appear in SMILES notation.

For data set [1] the following is noted: stated as known property.
The conditions of data set [2]: reason for composition pH of 4.5-5.5.

Turning to `CN(C)CCc1c[nH]c2cccc(O)c12` [psilocin], the isoelectric point in data set [1] was 8.47±0.25 pH. In data set [2], the “pH at which instability occurs” value is recorded as “over 5.5 pH”.
